From article PMC11505200, “Exploring the 3,5-Dibromo-4,6-dimethoxychalcones and Their Flavone Derivatives as Dual α-Glucosidase and α-Amylase Inhibitors with Antioxidant and Anticancer Potential” (Antioxidants, 2024)
Read-outs that look alike come from different tables or passages of the source.

Experiments:
[1] = Nitric oxide (NO) free radical scavenging assay (Griess reagent); conditions: mean ± SD; 1-50 μM
Description: Different concentrations (1, 5, 10, 25 and 50 μM) of the test compounds and quercetin (reference standard) were prepared in DMSO. A mixture of the compound (5 μL), 10 mM sodium nitroprusside (20 μL) and the phosphate buffer (5 μL) were incubated at 25 °C in a 96-well plate. The plate was incubated for 2.5 h at 25 °C followed by the addition of the Griess reagent (1.00 g of sulphanilic acid + 0.10 g naphthylethylene diamine dihydrochloride, 20 μL). The mixtures were allowed to stand for 30 min. […] The IC50 and SD values were calculated using the Graph Pad Prism software.

A549 cells = assay: Cytotoxicity, CellTiter-Blue cell viability assay; assay type: cell-based, human; conditions: 24 h treatment, 1-100 μM
Description: (§1) The cells were maintained in Dulbecco’s Modified Eagle’s Medium (DMEM, Gibco, Carlsbad, CA, USA) supplemented with 10% fetal bovine serum (FBS) and 1% penicillin/streptomycin in culture flasks and incubated at 37 °C in 5% CO2. When the cells reached 85% confluency, they were detached using 2% trypsin. The cell count was performed using a hand-held automated cell counter (Scapter 3.0™, Merck, Burlington, MA, USA) and then seeded at 1 × 10^5 cells/well. The well-plates were incubated overnight to allow cell attachment. After 24 h, treatments were administered with different concentrations (1, 5, 10, 25, 50 and 100 μM) of the test compounds and the positive controls (quercetin and nintedanib). The mixtures were incubated for another 24 h and then 20 μL of the CellTiter-Blue (Cytek Biosciences, San Diago, CA, USA) solution (5 mg/mL) was added to all the wells. Fluorescence was measured at 560 nm excitation/590 nm emission using an Elisa microplate reader (ThermoFisher Scientific, Vario SkanFlash, Vantaa, Finland). The cell viability of the triplicate results was calculated using the GraphPad Prism software (Version 8, GraphPad Software Inc., San Diego, CA, USA) to fit the nonlinear regression dose–response curves to obtain the IC50 and standard deviation values.

MCF-7 cells = assay: Cytotoxicity, CellTiter-Blue cell viability assay; assay type: cell-based, human; conditions: 24 h treatment, 1-100 μM
Description: as §1

Vero cells = assay: Cytotoxicity, CellTiter-Blue cell viability assay; assay type: cell-based, African green monkey (Cercopithecus aethiops); conditions: 24 h treatment, 1-100 μM
Description: as §1

[2] = molecular target: T1, α-glucosidase type 1 from Saccharomyces cerevisiae (Saccharomyces cerevisiae, UniProt P53341); assay: biochemical; assay type: biochemical; conditions: for selectivity index (SI = IC50(α-glucosidase)/IC50(α-amylase)): ratio of α-glucosidase to α-amylase IC50
T1 construct: purchased Merck Life Science (Pty) Ltd. (Sigma-Aldrich) G5003
Description: The assays and analyses were performed in triplicates following a method described in a previous study. […] A solution of α-glucosidase type 1 from Saccharomyces cerevisiae (0.48 u/mL, 17 μL), 100 mM phosphate buffer (pH 6.8; 50 μL) and the test sample in DMSO (17 μL) were incubated at 37 °C for 10 min. This pre-incubation was followed by addition of 2 mM p-nitrophenyl-α-D-glucopyranoside (PNP-G, 17 μL) to each of the wells containing reaction mixtures to initiate the reaction. The plate was then incubated for 30 min. at 37 °C. The five absorbance readings were recorded at a wavelength of 405 nm for each triplicate run using a Varioskan flash microplate spectrophotometer (Thermo Scientific, Waltham, MA, USA). The average values obtained from the readings were used to determine the IC50 and standard deviation values. The values were calculated by the nonlinear regression analysis using the Graph Pad Prism version 8.0.1 software (San Diego, CA, USA) and expressed as the mean SD of three distinct experiments.

α-amylase = molecular target: T2, α-amylase (Homo sapiens, UniProt P04746); assay: In vitro α-amylase inhibitory assay (α-Amylase Inhibitor Screening Kit); assay type: biochemical; conditions: mean ± SD, triplicate; 1-50 μM
T2 construct: purchased Abcam ab283391
T2 sequence (P04746 16-511): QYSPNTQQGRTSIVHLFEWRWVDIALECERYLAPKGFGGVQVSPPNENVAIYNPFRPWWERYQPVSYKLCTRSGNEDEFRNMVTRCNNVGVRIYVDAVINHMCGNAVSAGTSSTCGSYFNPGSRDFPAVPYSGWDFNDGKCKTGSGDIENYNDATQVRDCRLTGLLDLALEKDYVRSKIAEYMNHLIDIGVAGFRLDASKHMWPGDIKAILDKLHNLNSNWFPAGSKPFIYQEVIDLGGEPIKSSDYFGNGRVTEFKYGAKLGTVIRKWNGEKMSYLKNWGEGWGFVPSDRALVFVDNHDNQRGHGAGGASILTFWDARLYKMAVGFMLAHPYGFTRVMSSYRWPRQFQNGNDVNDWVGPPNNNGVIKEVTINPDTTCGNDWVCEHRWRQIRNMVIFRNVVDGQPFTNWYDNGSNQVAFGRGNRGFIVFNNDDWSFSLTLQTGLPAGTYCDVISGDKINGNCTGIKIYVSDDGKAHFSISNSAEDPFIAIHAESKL
Description: The mixtures were incubated at 37 °C for 10 min. and the substrate prepared in the same fashion as the enzyme was added to the mixtures to initiate the reaction. The plate was then incubated at RT for 25 min. in the dark. Five different absorbance readings were recorded for each triplicate run at a wavelength of 405 nm using a Varioskan flash microplate spectrophotometer (Thermo Scientific, Waltham, MA, USA). The IC50 and SD values were calculated using the Graph Pad Prism software.

[3] = Metal ion chelation assay (UV-Vis spectrophotometry); assay type: physicochemical; conditions: 60 μM in methanol with CuCl2, RT
Description: A solution of the test compound in methanol alone (60 μM, final concentration) or in the presence of CuCl2 or ZnCl2 was stirred at RT for 30 min. The absorption spectra were recorded at RT at wavelengths ranging from 200 to 600 nm using a Shimadzu UV/Vis spectrometer, model: UV-1800 240V (Shimadzu Europa GmbH, Albert-Han Strasse 6-10, 47269 Duisburg, Germany).

[4] = Chlorocebus sabaeus, Vero, 24 h
[5] = mean ± SD, triplicate, 1-50 μM, read-out: IC50 α-Glucosidase

T1 sequence (P53341 whole entry): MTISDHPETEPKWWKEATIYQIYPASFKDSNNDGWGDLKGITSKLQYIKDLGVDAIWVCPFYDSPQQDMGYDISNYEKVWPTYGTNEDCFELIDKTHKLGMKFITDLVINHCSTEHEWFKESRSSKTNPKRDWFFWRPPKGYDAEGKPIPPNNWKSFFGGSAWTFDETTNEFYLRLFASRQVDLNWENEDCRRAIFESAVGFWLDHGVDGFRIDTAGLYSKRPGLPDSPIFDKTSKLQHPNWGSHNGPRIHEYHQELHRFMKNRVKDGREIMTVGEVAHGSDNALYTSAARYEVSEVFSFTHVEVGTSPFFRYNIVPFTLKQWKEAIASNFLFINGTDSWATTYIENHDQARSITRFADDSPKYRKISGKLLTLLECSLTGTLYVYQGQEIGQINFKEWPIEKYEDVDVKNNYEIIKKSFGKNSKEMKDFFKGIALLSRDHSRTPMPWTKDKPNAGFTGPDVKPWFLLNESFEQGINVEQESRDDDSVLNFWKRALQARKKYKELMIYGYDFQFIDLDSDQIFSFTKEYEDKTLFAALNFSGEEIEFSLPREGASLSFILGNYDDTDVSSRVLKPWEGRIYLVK

IC50 [2, 5] [µM]	Compound	IC50 [1] [µM]	IC50 (A549 cells; Homo sapiens, A549, 24 h) [µM]	IC50 (MCF-7 cells; Homo sapiens, MCF7, 24 h) [µM]	IC50 (Vero cells; [4]) [µM]	melting point [°C]	IC50 [2] [µM]	IC50 (α-amylase) [µM]	other results
–	O=c1c(O)c(-c2ccc(O)c(O)c2)oc2cc(O)cc(O)c12 [Quercetin, reference compound]	4.8 ± 0.01	–	–	–	–	–	–	IC50 (A549 cells; Homo sapiens, A549): 35.4 ± 1.78 µM; IC50 (MCF-7 cells; Homo sapiens, MCF7): 35.4 ± 1.78 µM; IC50 (Vero cells; Chlorocebus sabaeus, Vero): 45.6 ± 1.8 µM
–	COC(=O)c1ccc2c(c1)NC(=O)/C2=C(\Nc1ccc(N(C)C(=O)CN2CCN(C)CC2)cc1)c1ccccc1 [Nintedanib, reference compound]	–	0.74 ± 0.15	0.53 ± 0.11	0.89 ± 0.18	–	–	–	–
19.5 ± 0.005	COc1c(Br)c(OC)c2c(=O)cc(-c3ccc(F)cc3)oc2c1Br [3b, 6,8-Dibromo-2-(4-fluorophenyl)-5,7-dimethoxy-4H-chromen-4-one]	5.4 ± 0.002	–	–	–	288 to 289	–	–	–
–	COc1c(Br)c(OC)c2c(=O)cc(-c3ccccc3)oc2c1Br [3a, 6,8-Dibromo-5,7-dimethoxy-2-phenyl-4H-chromen-4-one]	–	16.2 ± 0.91	8.5 ± 0.82	12.4 ± 0.97	216 to 218	14.2 ± 0.005	–	IC50 (A549 cells): 12.4 ± 0.97 µM; IC50 (Vero cells): 16.2 ± 0.91 µM
10.9 ± 0.007	COc1c(Br)c(OC)c2c(=O)cc(-c3ccc(C)cc3)oc2c1Br [3e, 6,8-Dibromo-5,7-dimethoxy-2-(p-tolyl)-4H-chromen-4-one]	13.3 ± 0.08	6.42 ± 0.79	6.96 ± 0.66	9.45 ± 0.79	205 to 206	–	25.4 ± 0.04	–
0.8 ± 0.002	COc1c(Br)c(OC)c2c(=O)cc(-c3ccc(Cl)cc3)oc2c1Br [3c, 6,8-Dibromo-2-(4-chlorophenyl)-5,7-dimethoxy-4H-chromen-4-ONE]	4.7 ± 0.02	–	6.96 ± 0.66	–	280 to 283	–	–	IC50 (MCF-7 cells): 5.1 ± 0.61 µM; coordination of Cu^2+ (change of UV-Vis maxima) [3]: some coordination of 3c to the copper ion
–	COc1c(Br)c(O)c(C(=O)/C=C/c2ccc(C)cc2)c(OC)c1Br [2e, (E)-1-(3,5-Dibromo-2-hydroxy-4,6-dimethoxyphenyl)-3-(p-tolyl)prop-2-en-1-one]	–	–	–	–	151 to 152	27.4 ± 0.02	–	–
–	COc1c(Br)c(O)c(C(=O)/C=C/c2ccc(C(C)C)cc2)c(OC)c1Br [2f, (E)-1-(3,5-Dibromo-2-hydroxy-4,6-dimethoxyphenyl)-3-(4-isopropylphenyl)prop-2-en-1-one]	17.4 ± 0.015	–	–	–	128 to 130	23.6 ± 0.1	–	–
–	COc1c(Br)c(O)c(C(=O)/C=C/c2ccccc2)c(OC)c1Br [2a, (E)-1-(3,5-Dibromo-2-hydroxy-4,6-dimethoxyphenyl)-3-phenylprop-2-en-1-one]	11 ± 0.01	7.4 ± 0.67	4.12 ± 0.55	6.04 ± 0.54	106 to 108	14.5 ± 0.01	7.3 ± 0.11	selectivity index (SI = IC50(α-glucosidase)/IC50(α-amylase)) [2]: 1.99
–	COc1c(Br)c(O)c(C(=O)/C=C/c2ccc(Cl)cc2)c(OC)c1Br [2c, (E)-1-(3,5-Dibromo-2-hydroxy-4,6-dimethoxyphenyl)-3-(4-chlorophenyl)prop-2-en-1-one]	28 ± 0.003	9.68 ± 0.8	15.1 ± 0.91	20.3 ± 1.01	150 to 152	12.3 ± 0.003	18 ± 0.06	selectivity index (SI = IC50(α-glucosidase)/IC50(α-amylase)) [2]: 0.68
–	COc1ccc(/C=C/C(=O)c2c(O)c(Br)c(OC)c(Br)c2OC)cc1 [2d, (E)-1-(3,5-Dibromo-2-hydroxy-4,6-dimethoxyphenyl)-3-(4-methoxyphenyl)prop-2-en-1-one]	9.5 ± 0.004	–	–	–	155 to 158	16.3 ± 0.02	–	–
15.2 ± 0.002	COc1ccc(-c2cc(=O)c3c(OC)c(Br)c(OC)c(Br)c3o2)cc1 [3d, 6,8-Dibromo-5,7-dimethoxy-2-(4-methoxyphenyl)-4H-chromen-4-one]	5.3 ± 0.005	–	–	–	233 to 236	–	–	–

Compound	IC50 [2, 5] [µM]	IC50 [1] [µM]	IC50 (A549 cells; Homo sapiens, A549, 24 h) [µM]	IC50 (MCF-7 cells; Homo sapiens, MCF7, 24 h) [µM]	IC50 (Vero cells; [4]) [µM]	melting point [°C]	IC50 [2] [µM]	IC50 (α-amylase) [µM]	other results
COc1c(Br)c(O)c(C(=O)/C=C/c2ccc(F)cc2)c(OC)c1Br [2b, (E)-1-(3,5-Dibromo-2-hydroxy-4,6-dimethoxyphenyl)-3-(4-fluorophenyl)prop-2-en-1-one]	7.3 ± 0.004	6.5 ± 0.005	18.7 ± 0.89	12.1 ± 0.72	25 ± 1.09	132 to 134	–	6.5 ± 0.07	selectivity index (SI = IC50(α-glucosidase)/IC50(α-amylase)) [2]: 1.12
COc1c(Br)c(OC)c2c(=O)cc(-c3ccc(C(C)C)cc3)oc2c1Br [3f, 6,8-Dibromo-5,7-dimethoxy-2-(4-isopropylphenyl)-4H-chromen-4-one]	5.6 ± 0.006	12.1 ± 0.07	16.1 ± 1.15	10.7 ± 1.02	11.7 ± 1.02	165 to 167	–	28 ± 0.06	selectivity index (SI = IC50(α-glucosidase)/IC50(α-amylase)) [2]: 0.2
